Data published in publication PMC8765781, “A platform of assays for the discovery of anti-Zika small-molecules with activity in a 3D-bioprinted outer-blood-retina model” (PLoS ONE, 2022).
Read-outs that look alike come from different tables or passages of the source.

Legend:
[1] = test system: ZIKV-RLuc (Cambodian strain FSS13025); experiment: microbe, parasite or virus in culture; format: cell-based, Zika virus; conditions: for IC50: read-out: Rluc-ZIKV (ZIKV Antiviral Assays), IC50
in vitro = conditions: African green monkey
[2] = test system: wild-type ZIKV (Ugandan MR766 strain) in Vero cells; experiment: ZIKV cytopathic effect (CPE) inhibition qHTS assay, CellTiter-Glo readout; format: cell-based, Zika virus; conditions: for IC50: read-out: ZIKV-infection (CPE, ZIKV Antiviral Assays), IC50
[3] = test system: caspase-3 activity induced by ZIKV in Vero cells; experiment: cells; format: cell-based; conditions: read-out: Caspase 3 (ZIKV Antiviral Assays), IC50
[4] = test system: ZIKV-mCherry (Cambodian strain FSS13025); experiment: microbe, parasite or virus in culture; format: cell-based, Zika virus
[5] = Zika virus, Vero, from Hill fit of the response curve, 50% of maximum activity response, 194 cherry-picked compounds, protocol name not given, read-out: AC50
[6] = Zika virus, Vero, potency in log units (Molar) from Hill fit of the response curve, 194 cherry-picked compounds, protocol name not given, read-out: Log AC50 (converted)
[7] = Zika virus, Vero cells, wild-type ZIKV MOI 1, 48 hr, unit inferred
[8] = difference between neutral response and maximum compound response
[9] = Zika virus, ZIKV-infected Vero cells, 48 hr, unit inferred
[10] = Zika virus, Vero, read-out: Log AC50 (M) (converted)
[11] = curve class v2 (Inglese et al. 2006)

Row | SMILES | IC50 ([1]; Zika virus, Vero, 48 h) [µM] | CC-v2 (curve class of the dose response curve) [4] | Efficacy (difference between neutral response and maximum compound response) [4] | Max Resp (difference between neutral response and response at highest compound concentration) [4] | Efficacy [2] | AC50 ([2]; Zika virus, Vero) [M] | IC50 ([3]; Zika virus, Vero, 48 h) [µM] | CC-v2 (curve class classification v2 of the dose response curve) [1] | Efficacy (difference between neutral response and maximum compound response) [1] | Max Resp (difference between neutral response and compound response for highest compound concentration) [1] | AC50 ([1]; Zika virus, Vero) [M] | AC50 [1, 10] [M] | AC50 (Vero cells) [µM] | Log AC50 (M) (Vero cells) | other results
1 | C=C1CC[C@@]2(OC1)O[C@H]1CC3C4CC=C5C[C@@H](O[C@@H]6O[C@@H](C)[C@H](O)[C@@H](O)[C@H]6O)C[C@@H](O[C@@H]6O[C@H](C)[C@H](O)[C@H](O)[C@H]6O[C@@H]6O[C@@H](C)[C@H](O)[C@@H](O)[C@H]6O)[C@]5(C)C4CC[C@]3(C)[C@H]1[C@@H]2C (stereo partly shown) [NCGC00384710-01] | 6.95 | -1.2 | -59.162 | -100.305 | – | – | – | – | – | – | – | – | – | – | CC50 at 48 h (in vitro): > 50 µM; AC50 [2, 5]: 1.23e-05 M; AC50 [2, 6]: 1.23e-05 M; IC50 [2, 7]: 12.3 µM; Efficacy [2, 8]: -26.266; IC50 [3, 9]: 1.24 µM; AC50 ([4]; Zika virus, Vero): 7.14e-07 M; AC50 [4, 10]: 7.14e-07 M
2 | CC1(C)CC2C3=CCC4[C@@]5(C)CC[C@H](OC6OCC(O)C(OC7OC(CO)C(O)C(O)C7O)C6O)C(C)(C)C5CC[C@@]4(C)[C@]3(C)C[C@H](O)[C@@]2(CO)[C@H](OC(=O)c2ccccc2)C1 (stereo partly shown) [NCGC00347604-02] | 5.52 | -1.4 | -68.489 | -100.29 | – | – | – | – | – | – | – | – | – | – | CC50 (in vitro): > 50 µM; AC50 [2, 5]: 7.78e-06 M; AC50 [2, 6]: 7.78e-06 M; IC50 [2, 7]: 7.78 µM; CC-v2 (curve class classification of the dose response curve) [2, 11]: -3; Efficacy [2, 8]: -34.889; IC50 [3, 9]: > 48 µM
3 | C[C@@H]1O[C@@H](O[C@H]2[C@H](O[C@H]3[C@H](O)[C@@H](C(=O)O)O[C@@H](O[C@H]4CC[C@@]5(C)C(CC[C@]6(C)C5CC[C@]57OC[C@@]8(CCC(C)(C)CC85)[C@H](O)C[C@]76C)C4(C)C)[C@@H]3O[C@@H]3O[C@H](CO)[C@@H](O[C@@H]4OC[C@@H](O)[C@H](O)[C@H]4O)[C@H](O)[C@H]3O)O[C@H](CO)[C@H](O)[C@@H]2O)[C@H](O)[C@H](O)[C@H]1O (stereo partly shown) [NCGC00384492-01] | 5.61 | -1.4 | -52.527 | -99.118 | -27.701 | 1.1e-05 | 5.64 | – | – | – | – | – | – | – | CC50 at 48 h (in vitro; Vero cells): > 50 µM; IC50 ([2]; Zika virus, Vero, 48 h): 11 µM; AC50 [2, 10]: 1.1e-05 M
4 | C[C@@H]1O[C@@H](O[C@H]2[C@H](OC(=O)[C@]34CCC(C)(C)C[C@H]3C3=CCC5[C@@]6(C)C[C@H](O)[C@H](O[C@@H]7O[C@H](C(=O)O)[C@@H](O)[C@H](O)[C@H]7O)[C@@](C)(CO)C6[C@H](O)C[C@@]5(C)[C@]3(C)CC4)OC[C@H](O)[C@@H]2O)[C@H](O)[C@H](O)[C@H]1O[C@@H]1OC[C@@H](O)[C@H](O[C@@H]2O[C@@H](C)[CH][C@@H](O)[C@H]2O)[C@H]1O (stereo partly shown) [NCGC00384879-01] | 0.13 | -1.2 | -58.138 | -66.904 | -56.214 | 4.36e-06 | 5.64 | – | – | – | – | – | – | – | CC50 (in vitro): > 50 µM; CC-v2 (curve class classification of the dose response curve) [2]: -3; IC50 ([2]; Zika virus, Vero, 48 h): 4.36 µM; AC50 [2, 10]: 4.36e-06 M; AC50 ([4]; Zika virus, Vero): 6.35e-10 M; AC50 [4, 10]: 6.35e-10 M
5 | C[C@H]1CC[C@@]2(OC1)O[C@H]1CC3C4CC[C@H]5C[C@@H](O[C@@H]6O[C@H](CO)[C@H](O[C@@H]7O[C@H](CO)[C@@H](O)[C@H](O[C@@H]8OC[C@@H](O)[C@H](O)[C@H]8O)[C@H]7O[C@@H]7O[C@H](CO)[C@@H](O)[C@H](O)[C@H]7O)[C@H](O)[C@H]6O)[C@H](O)C[C@]5(C)C4=CC(=O)[C@]3(C)[C@H]1[C@@H]2C (stereo partly shown) [NCGC00385095-01] | 6.95 | -1.4 | -65.601 | -99.657 | – | – | – | – | – | – | – | – | – | – | CC50 at 48 h (in vitro): > 50 µM; AC50 [2, 5]: 1.55e-05 M; AC50 [2, 6]: 1.55e-05 M; IC50 [2, 7]: 15.5 µM; Efficacy [2, 8]: -21.201; IC50 [3, 9]: 7.84 µM
6 | CC1=CC[C@]2(C(=O)O[C@@H]3O[C@H](CO[C@@H]4O[C@H](CO)[C@@H](O[C@@H]5O[C@@H](C)[C@H](O)[C@@H](O)[C@H]5O)[C@H](O)[C@H]4O)[C@@H](O)[C@H](O)[C@H]3O)CC[C@]3(C)C(CCC4[C@@]5(C)C[C@@H](O)[C@H](O)[C@@](C)(CO)C5CC[C@]43C)C2C1C (stereo partly shown) [NCGC00381125-01] | 0.003 | -1.4 | -51.276 | -44.108 | -73.731 | 6.18e-06 | 0.01 | – | – | – | – | – | – | – | CC50 at 48 h (in vitro): > 50 µM; CC-v2 (curve class classification of the dose response curve) [2]: -3; IC50 ([2]; Zika virus, Vero, 48 h): 6.18 µM; AC50 [2, 10]: 6.18e-06 M
7 | C/C=C(/C)C(=O)O[C@H]1[C@@H]2[C@H](C)C(=O)O[C@@H]2C[C@@H](C)[C@@H]2C=CC(=O)[C@]21C [NCGC00385048-01] | 18.1 | – | – | – | -20.801 | – | 0.65 | – | – | – | – | – | – | – | CC50 at 48 h (in vitro): > 50 µM
8 | O=C1NC2CCCCN2C12CCN(CCCN1c3ccccc3CCc3ccc(Cl)cc31)CC2 (stereo not shown) [NCGC00183853-01] | – | – | – | – | – | – | – | -2.1 | -99.983 | -99.289 | 2.61e-05 | 2.61e-05 | 26.1 | -4.5827 | AC50 [2, 5]: 6.51e-05 M; AC50 [2, 6]: 6.51e-05 M; CC-v2 (curve class classification of the dose response curve) [2, 11]: -3; Efficacy [2, 8]: -47.567
9 | CC1=C(CO)C(=O)O[C@@H]([C@@H](C)[C@H]2CC[C@H]3[C@@H]4C[C@H]5O[C@]56[C@@H](O)C=CC(=O)[C@]6(C)[C@H]4CC[C@]23C)C1 [NCGC00180796-02] | – | – | – | – | -63.347 | 3.55e-05 | – | -2.1 | -108.248 | -100.116 | 1.02e-05 | 1.02e-05 | 10.2 | -4.9908 | Curve class [2]: -3; AC50 ([2]; Zika virus, Vero, read-out: Log AC50 (converted)): 3.55e-05 M; Emax ([2]; Zika virus, Vero, read-out: Max response): -65.4%
10 | CC1(C)CC[C@]2(C(=O)O)CC[C@]3(C)C(=CCC4[C@@]5(C)CCC(O[C@@H]6OC[C@H](O)[C@H](O)[C@H]6O[C@@H]6O[C@H](CO)[C@@H](O)[C@H](O)[C@H]6O)[C@@](C)(CO)C5CC[C@]43C)[C@@H]2C1 (stereo partly shown) [NCGC00347737-02] | 12.3 | – | – | – | -61.863 | 2.43e-07 | 0.02 | – | – | – | – | – | – | – | CC50 at 48 h (in vitro; Vero cells): > 50 µM; IC50 ([2]; Zika virus, Vero, 48 h): 0.24 µM; AC50 [2, 10]: 2.43e-07 M
11 | CC(=O)O[C@@H]1[C@@H](O)[C@H]2O[C@@H]3C=C(C)[C@@H](O)C[C@]3(CO)[C@]1(C)[C@]21CO1 [NCGC00380400-01, NT-2 toxin] | – | -1.2 | -59.911 | -100.305 | -41.676 | – | – | – | – | – | – | – | – | – | IC50 [1]: 0.64 µM; CC-v2 (curve class classification of the dose response curve) [2]: -1.2; Log AC50 (M) [2]: -5.594 M; Max Resp [2]: 6.747; AC50 ([2]; read-out: AC50): 2.55e-06 M; IC50 [2]: 2.55 µM; IC50 [3]: 2.29 µM; Log AC50 (M) [4]: -7.0328 M; AC50 ([4]; read-out: AC50): 9.27e-08 M
12 | O=C1Nc2ccc(Cl)cc2[C@@](C#CC2CC2)(C(F)(F)F)O1 [NCGC00159337-04] | – | – | – | – | – | – | – | -2.1 | -93.261 | -95.737 | 1.65e-05 | 1.65e-05 | 16.5 | -4.7827 | –
13 | N=c1c2c(-c3ccccc3)c(-c3ccccc3)n(Cc3ccccc3)c2ncn1C1CCC(O)CC1 (stereo not shown) [NCGC00247785-05] | – | – | – | – | – | – | – | -1.1 | -97.244 | -99.645 | 4.96e-06 | 4.96e-06 | 4.96 | -5.3045 | –
14 | O=c1cc(-c2ccc(O)c(O)c2)oc2c(C3O[C@H](CO)[C@H](O)[C@H](O)[C@H]3O)c(O)cc(O)c12 (stereo partly shown) [NCGC00168934-02] | – | – | – | – | – | – | – | -2.1 | -106.691 | -100.564 | 1.85e-05 | 1.85e-05 | 18.5 | -4.7327 | –
15 | Nc1ccc(C(=O)c2cc3c(ccc4ccccc43)[nH]2)cc1 [NCGC00263233-01] | – | – | – | – | – | – | – | -2.1 | -115.821 | -99.398 | 2.08e-05 | 2.08e-05 | 20.8 | -4.6827 | –
